Reference: US20100285156A1, “COMPOSITION FOR PREVENTING AND TREATING METABOLIC DISEASES COMPRISING THE EXTRACT OF LYSIMACHIAE FOENUM-GRAECI HERBA” (BRNSCIENCE CO., LTD, priority 2007, published 2010)

Columns and labels:
[1] = system: DIO (Diet Induced-Obesity) mice; assay: Blood metabolic disease marker levels in diet-induced obesity (DIO) mice; format: in vivo, C57BL/6 male mice
Method: Seven-week-old C57BL/6 male mice (obtained from Coretec Inc.) were bred in an animal facility where breeding conditions of temperature (20±1° C.), humidity (50±10%), light/dark cycle (12 hours), light intensity (150 to 300 Lux), and ventilation (10 to 20 times/hr) were maintained. Solid feed (obtained from Folas International Inc.) was freely supplied to the mice, and city water was subjected to steam sterilization and then was freely fed to the mice as drinking water. After acclimation for one week, 60% Kcal solid feed (obtained from Research Diet Inc.) was supplied to the mice, and the Lysimachiae Foenum-Graeci Herba extract was orally administered to the mice for 42 days in an amount of 30, 100, and 300 mg/kg/day. Sibutramine was administered to a positive control group in an amount of 10 mg/kg/day, and 0.5% MC (methyl cellulose) was administered to a negative control group in the same amount. The mice to which the substances were administered for six weeks were fasted for one day, and then were killed using CO2 gas. Blood gathered from the mouse abdominal vena cava was put into EDTA tubes and stored in ice, and then plasma obtained by centrifugation at 3000 rpm for 10 minutes was analyzed using a biochemical auto analyzer (AU400, Olympus, Japan). Also, organs extracted from the mice were immediately frozen by putting them into liquid nitrogen, were stored in a low-temperature refrigerator (−70° C.), and were histologically analyzed.
The contents of triglycerides and cholesterol in the extracted liver tissues were also measured, the results of which are given in FIG. 2.

[2] = system: ICR male mice given corn oil; assay: Antihyperlipidemic activity, corn oil loaded mice; format: in vivo; details: plasma, 10 mg/kg, control drug, corn oil 1 g/kg
Method: Five-week-old ICR male mice (obtained from Central Lab. Animal Inc.) were bred in an animal facility where breeding conditions of temperature (20±1° C.), humidity (50±10%), light/dark cycle (12 hours), light intensity (150 to 300 Lux), and ventilation (10 to 20 times/hr) were maintained. Solid feed for laboratory animals (obtained from Cargill Agri Purina Inc.) was freely supplied to the mice, and city water was subjected to steam sterilization and then was freely fed to the mice as drinking water. After acclimation for one week, the […] Herba extract was orally administered to eight mice per group in a concentration of 100 mg/kg, and a saline was orally administered to the control group instead of the extract.

[3] = plasma, high-fat diet, 10 mg/kg/day, six weeks
[4] = positive control group, summary of Table 1

SMILES	ALT (Alanine aminotransferase) [1, 3] [IU/L]	AST (Aspartate aminotransferase) [1, 3] [IU/L]	CHO (Cholesterol) [1, 3] [mg/dL]	GLU (Glucose) [1, 3] [mg/dL]	TG (Triglyceride) [1, 3] [mg/dL]	ALT and glucose levels [1, 4]	AST and cholesterol levels [1, 4]	triglyceride level [1, 4]	CHO (Cholesterol) [2] [mg/dL]	TG (Triglyceride) [2] [mg/dL]
CC(C)CC(N(C)C)C1(c2ccc(Cl)cc2)CCC1 (stereo not shown) [Sibutramine]	64 ± 15.1	172.33 ± 58.4	187.33 ± 15	182.66 ± 27.3	91.33 ± 17.0	meaningfully reduced	not changed	rather increased		
CCCCCCCCCCC[C@@H](C[C@@H]1OC(=O)[C@H]1CCCCCC)OC(=O)[C@H](CC(C)C)NC=O [Xenical]									148.83 ± 8.26	311.17 ± 45.56
